Test results taken from BindingDB's records for doi:10.1111/j.1476-5381.1994.tb14064.x (Glaxo Group Research, 1994).

What was measured:
Mu-type opioid receptor = Mu-type opioid receptor (Rattus norvegicus, UniProt P33535)
Substance-P receptor = Substance-P receptor (Rattus norvegicus, UniProt P14600)
Adenosine receptor A2a = Adenosine receptor A2a (Rattus norvegicus, UniProt P30543)
[1] = biological target: Gamma-aminobutyric acid (GABA) B receptor 1 (Rattus norvegicus, UniProt Q6MFX8)
[2] = biological target: Kappa-type opioid receptor (Rattus norvegicus, UniProt P34975)
D(2) dopamine receptor = D(2) dopamine receptor (Rattus norvegicus, UniProt P61169)
Vasopressin V2 receptor = Vasopressin V2 receptor (Rattus norvegicus, UniProt Q00788)
[3] = biological target: Beta-1 adrenergic receptor (Rattus norvegicus, UniProt P18090)
[4] = biological target: Endothelin-converting enzyme 1 (Rattus norvegicus, UniProt P42893)
Adenosine receptor A1 = Adenosine receptor A1 (Rattus norvegicus, UniProt P25099)
[5] = biological target: Alpha-1A adrenergic receptor (Rattus norvegicus, UniProt P43140)
[6] = biological target: Gamma-aminobutyric acid receptor subunit alpha-1 (Rattus norvegicus, UniProt P62813)
[7] = biological target: 5-hydroxytryptamine receptor 2C (Sus scrofa, UniProt K7GSR7)
[8] = biological target: 5-hydroxytryptamine receptor 3A (Rattus norvegicus, UniProt P35563)
[9] = biological target: Alpha-2C adrenergic receptor (Rattus norvegicus, UniProt P22086)
[10] = biological target: Beta-2 adrenergic receptor (Cavia porcellus, UniProt Q8K4Z4)
B1 bradykinin receptor = B1 bradykinin receptor (Rattus norvegicus, UniProt P97583)
[11] = biological target: Bombesin receptor subtype-3 (Rattus norvegicus, UniProt Q8K418)
[12] = biological target: Calcitonin gene-related peptide 1 (Rattus norvegicus, UniProt P01256)
[13] = biological target: Gastrin/cholecystokinin type B receptor (Rattus norvegicus, UniProt P30553)
[14] = biological target: Muscarinic acetylcholine receptor M2 (Rattus norvegicus, UniProt P10980)
[15] = biological target: Muscarinic acetylcholine receptor M1 (Rattus norvegicus, UniProt P08482)
[16] = biological target: Muscarinic acetylcholine receptor M3 (Rattus norvegicus, UniProt P08483)
D(1A) dopamine receptor = D(1A) dopamine receptor (Rattus norvegicus, UniProt P18901)
Galanin peptides = Galanin peptides (Rattus norvegicus, UniProt P10683)
[17] = biological target: Glutamate receptor ionotropic, NMDA 1 (Rattus norvegicus, UniProt P35439)
[18] = biological target: Glycine amidinotransferase, mitochondrial (Rattus norvegicus, UniProt P50442)
Histamine H1 receptor = Histamine H1 receptor (Rattus norvegicus, UniProt P31390)
Hrh3 protein = Hrh3 protein (Rattus norvegicus, UniProt Q5PPG3)
[19] = biological target: Nicotinic acetylcholine receptor (Rattus leucopus, UniProt Q62594)
Substance-K receptor = Substance-K receptor (Rattus norvegicus, UniProt P16610)
Neuromedin-K receptor = Neuromedin-K receptor (Mus musculus, UniProt P47937)
Pro-neuropeptide Y = Pro-neuropeptide Y (Rattus norvegicus, UniProt P07808)
Somatostatin = Somatostatin (Rattus norvegicus, UniProt P60042)
[20] = biological target: Rat vasopressin-neurophysin (Rattus norvegicus, UniProt Q6LEI5)
VIP peptides = VIP peptides (Rattus norvegicus, UniProt P01283)
Chain of VIP peptides (P01283 125-152 limits assumed): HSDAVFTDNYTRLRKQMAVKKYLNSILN

Chain of Kappa-type opioid receptor (P34975 whole entry): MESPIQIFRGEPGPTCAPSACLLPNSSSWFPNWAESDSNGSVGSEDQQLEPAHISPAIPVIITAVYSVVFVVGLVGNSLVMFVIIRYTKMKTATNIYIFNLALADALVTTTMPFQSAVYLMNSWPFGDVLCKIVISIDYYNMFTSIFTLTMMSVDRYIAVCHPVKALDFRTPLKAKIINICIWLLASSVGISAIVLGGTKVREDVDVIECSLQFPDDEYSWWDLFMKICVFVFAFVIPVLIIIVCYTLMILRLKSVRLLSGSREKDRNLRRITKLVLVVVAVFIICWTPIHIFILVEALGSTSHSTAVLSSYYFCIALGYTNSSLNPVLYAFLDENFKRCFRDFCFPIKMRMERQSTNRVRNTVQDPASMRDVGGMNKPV
Chain of Adenosine receptor A1 (P25099 whole entry): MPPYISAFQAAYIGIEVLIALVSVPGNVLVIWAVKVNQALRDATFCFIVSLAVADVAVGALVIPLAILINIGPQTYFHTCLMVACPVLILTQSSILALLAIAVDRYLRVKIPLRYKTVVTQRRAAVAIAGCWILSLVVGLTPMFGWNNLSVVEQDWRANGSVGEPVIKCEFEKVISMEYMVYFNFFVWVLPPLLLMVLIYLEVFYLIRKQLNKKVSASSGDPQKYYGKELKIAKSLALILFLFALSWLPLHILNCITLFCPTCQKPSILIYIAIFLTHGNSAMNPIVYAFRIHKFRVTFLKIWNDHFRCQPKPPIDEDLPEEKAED
Chain of Substance-K receptor (P16610 whole entry): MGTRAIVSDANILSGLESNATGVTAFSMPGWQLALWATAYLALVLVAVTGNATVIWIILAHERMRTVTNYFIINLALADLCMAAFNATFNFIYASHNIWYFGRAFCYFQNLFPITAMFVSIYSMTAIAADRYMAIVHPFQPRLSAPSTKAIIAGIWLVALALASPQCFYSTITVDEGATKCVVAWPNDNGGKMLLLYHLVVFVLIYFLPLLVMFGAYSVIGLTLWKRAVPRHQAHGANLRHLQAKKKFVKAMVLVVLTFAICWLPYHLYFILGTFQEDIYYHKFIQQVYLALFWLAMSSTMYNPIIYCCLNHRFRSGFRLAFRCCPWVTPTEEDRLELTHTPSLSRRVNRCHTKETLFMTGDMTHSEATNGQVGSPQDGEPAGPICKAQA
Chain of Muscarinic acetylcholine receptor M3 (P08483 whole entry): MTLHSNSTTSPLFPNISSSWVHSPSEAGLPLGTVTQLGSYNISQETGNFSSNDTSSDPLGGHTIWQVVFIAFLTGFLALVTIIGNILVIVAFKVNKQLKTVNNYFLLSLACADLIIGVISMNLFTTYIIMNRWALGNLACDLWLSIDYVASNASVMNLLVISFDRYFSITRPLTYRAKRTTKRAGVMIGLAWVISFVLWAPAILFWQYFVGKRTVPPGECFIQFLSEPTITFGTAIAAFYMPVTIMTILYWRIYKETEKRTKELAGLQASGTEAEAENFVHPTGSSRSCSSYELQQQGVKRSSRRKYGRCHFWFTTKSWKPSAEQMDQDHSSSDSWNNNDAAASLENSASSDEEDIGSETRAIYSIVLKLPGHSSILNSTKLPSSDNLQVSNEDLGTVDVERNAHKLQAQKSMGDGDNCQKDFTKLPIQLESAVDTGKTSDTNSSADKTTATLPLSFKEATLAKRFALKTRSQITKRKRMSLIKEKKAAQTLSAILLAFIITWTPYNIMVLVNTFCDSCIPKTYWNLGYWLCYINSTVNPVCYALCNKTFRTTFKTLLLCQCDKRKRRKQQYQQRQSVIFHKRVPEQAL
Chain of D(2) dopamine receptor (P61169 whole entry): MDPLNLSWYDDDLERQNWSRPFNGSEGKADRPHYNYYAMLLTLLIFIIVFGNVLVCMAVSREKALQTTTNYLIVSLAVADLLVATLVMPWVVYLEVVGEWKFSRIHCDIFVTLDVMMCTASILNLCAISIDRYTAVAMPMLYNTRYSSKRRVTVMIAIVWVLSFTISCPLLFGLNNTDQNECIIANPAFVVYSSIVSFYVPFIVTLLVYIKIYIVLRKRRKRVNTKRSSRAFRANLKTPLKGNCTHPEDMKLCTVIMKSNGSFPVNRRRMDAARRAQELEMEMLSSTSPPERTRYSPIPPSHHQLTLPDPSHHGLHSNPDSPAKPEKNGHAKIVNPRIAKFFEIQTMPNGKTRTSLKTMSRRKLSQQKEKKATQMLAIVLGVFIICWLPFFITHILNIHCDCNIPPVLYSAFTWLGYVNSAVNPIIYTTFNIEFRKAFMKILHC
Chain of Glycine amidinotransferase, mitochondrial (P50442 whole entry): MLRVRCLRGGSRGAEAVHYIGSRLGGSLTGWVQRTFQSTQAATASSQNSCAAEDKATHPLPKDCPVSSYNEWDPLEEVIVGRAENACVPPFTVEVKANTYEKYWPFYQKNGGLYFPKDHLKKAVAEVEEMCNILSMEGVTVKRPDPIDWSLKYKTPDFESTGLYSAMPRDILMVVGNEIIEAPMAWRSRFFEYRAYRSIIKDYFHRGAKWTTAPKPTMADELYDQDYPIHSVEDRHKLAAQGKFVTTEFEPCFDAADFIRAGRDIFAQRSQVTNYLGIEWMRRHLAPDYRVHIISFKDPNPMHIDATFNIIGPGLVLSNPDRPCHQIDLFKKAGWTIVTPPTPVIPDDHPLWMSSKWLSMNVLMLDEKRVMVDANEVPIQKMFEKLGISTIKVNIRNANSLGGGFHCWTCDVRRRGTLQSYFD
Chain of 5-hydroxytryptamine receptor 2C (K7GSR7 whole entry): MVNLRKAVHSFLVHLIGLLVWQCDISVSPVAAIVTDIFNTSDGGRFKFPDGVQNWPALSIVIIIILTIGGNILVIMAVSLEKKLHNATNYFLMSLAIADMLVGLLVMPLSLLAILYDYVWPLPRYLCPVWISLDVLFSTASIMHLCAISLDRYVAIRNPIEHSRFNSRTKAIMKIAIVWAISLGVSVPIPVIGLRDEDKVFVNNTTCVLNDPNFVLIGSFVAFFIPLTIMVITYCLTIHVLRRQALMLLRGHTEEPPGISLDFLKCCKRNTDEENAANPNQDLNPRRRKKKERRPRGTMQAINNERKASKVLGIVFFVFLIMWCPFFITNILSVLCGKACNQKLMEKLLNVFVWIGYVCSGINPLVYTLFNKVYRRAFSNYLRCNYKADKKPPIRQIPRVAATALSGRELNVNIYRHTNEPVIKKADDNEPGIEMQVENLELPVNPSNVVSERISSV
Chain of Muscarinic acetylcholine receptor M2 (P10980 whole entry): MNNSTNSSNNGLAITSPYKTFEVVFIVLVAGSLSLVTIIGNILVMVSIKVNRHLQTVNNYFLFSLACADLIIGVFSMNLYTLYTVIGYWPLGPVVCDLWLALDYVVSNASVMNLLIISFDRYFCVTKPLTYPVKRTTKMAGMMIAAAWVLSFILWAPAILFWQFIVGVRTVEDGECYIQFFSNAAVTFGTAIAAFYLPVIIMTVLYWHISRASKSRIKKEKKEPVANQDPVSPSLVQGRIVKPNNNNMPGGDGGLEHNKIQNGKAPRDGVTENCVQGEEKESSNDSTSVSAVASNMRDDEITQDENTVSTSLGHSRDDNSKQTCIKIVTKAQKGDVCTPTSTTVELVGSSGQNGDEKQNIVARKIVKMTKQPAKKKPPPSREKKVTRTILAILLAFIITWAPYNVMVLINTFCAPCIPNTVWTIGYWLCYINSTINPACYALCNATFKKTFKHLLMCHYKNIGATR
Chain of 5-hydroxytryptamine receptor 3A (P35563 whole entry): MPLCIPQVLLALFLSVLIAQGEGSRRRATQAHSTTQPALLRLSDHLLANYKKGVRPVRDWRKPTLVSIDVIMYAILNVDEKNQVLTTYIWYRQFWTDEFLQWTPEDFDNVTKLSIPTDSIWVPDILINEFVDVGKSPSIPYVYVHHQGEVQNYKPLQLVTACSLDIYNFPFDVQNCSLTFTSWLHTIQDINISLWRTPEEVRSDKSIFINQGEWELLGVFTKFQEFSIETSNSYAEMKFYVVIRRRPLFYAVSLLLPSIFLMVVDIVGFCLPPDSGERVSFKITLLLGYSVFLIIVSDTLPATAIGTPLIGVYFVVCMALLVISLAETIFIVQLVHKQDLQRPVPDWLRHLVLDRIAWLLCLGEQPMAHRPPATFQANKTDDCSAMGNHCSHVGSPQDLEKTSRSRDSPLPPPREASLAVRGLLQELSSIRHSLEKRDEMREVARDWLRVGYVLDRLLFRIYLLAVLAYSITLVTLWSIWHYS
Chain of Gastrin/cholecystokinin type B receptor (P30553 whole entry): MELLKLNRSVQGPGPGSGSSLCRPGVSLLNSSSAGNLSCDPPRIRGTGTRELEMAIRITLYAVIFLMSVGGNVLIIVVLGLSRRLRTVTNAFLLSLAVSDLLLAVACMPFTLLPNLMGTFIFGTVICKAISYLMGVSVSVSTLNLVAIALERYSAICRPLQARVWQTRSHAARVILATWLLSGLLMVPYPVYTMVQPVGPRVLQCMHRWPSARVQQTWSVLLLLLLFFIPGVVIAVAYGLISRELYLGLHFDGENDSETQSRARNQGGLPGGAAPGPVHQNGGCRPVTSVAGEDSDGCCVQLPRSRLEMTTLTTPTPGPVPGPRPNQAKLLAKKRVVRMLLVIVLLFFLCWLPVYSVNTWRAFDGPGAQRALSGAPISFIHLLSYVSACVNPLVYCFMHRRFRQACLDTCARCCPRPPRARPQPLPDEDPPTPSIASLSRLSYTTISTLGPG
Chain of Beta-2 adrenergic receptor (Q8K4Z4 whole entry): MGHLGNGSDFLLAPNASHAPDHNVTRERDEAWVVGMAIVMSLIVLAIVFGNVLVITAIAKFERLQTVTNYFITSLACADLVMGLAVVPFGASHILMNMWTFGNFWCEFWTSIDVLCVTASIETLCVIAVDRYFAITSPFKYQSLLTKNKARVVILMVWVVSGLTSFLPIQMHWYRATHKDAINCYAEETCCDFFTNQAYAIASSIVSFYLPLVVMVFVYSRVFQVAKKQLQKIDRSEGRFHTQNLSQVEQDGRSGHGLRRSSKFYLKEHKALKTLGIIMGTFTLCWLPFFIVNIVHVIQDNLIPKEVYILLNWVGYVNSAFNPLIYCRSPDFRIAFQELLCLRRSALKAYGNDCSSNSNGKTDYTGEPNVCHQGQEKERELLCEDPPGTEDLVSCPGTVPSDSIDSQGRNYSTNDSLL
Chain of Galanin peptides (P10683 33-61 limits assumed): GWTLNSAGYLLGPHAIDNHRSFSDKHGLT

`Cn1cc(C(=O)OCC2CCN(CCNS(C)(=O)=O)CC2)c2ccccc21` [GR 113808] was tested, and the Ki (Mu-type opioid receptor) was > 10 µM, the Ki (Substance-P receptor) was > 10 µM and the Ki (Adenosine receptor A2a) was > 10 µM. For the same compound, the Ki [1] was > 10 µM, the Ki [2] was > 10 µM and the Ki (D(2) dopamine receptor) was > 10 µM. For the same compound, the Ki (Vasopressin V2 receptor) was > 10 µM, the Ki [3] was 7.94 µM and the Ki [4] was > 10 µM. For the same compound, the Ki (Adenosine receptor A1) was > 10 µM, the Ki [5] was > 10 µM and the Ki [6] was > 10 µM. The Ki [7] was > 10 µM, the Ki [8] was 1 µM and the Ki [9] was > 10 µM. The Ki [10] was > 10 µM, the Ki (B1 bradykinin receptor) was > 10 µM and the Ki [11] was > 10 µM. For the same compound, the Ki [12] was > 10 µM, the Ki [13] was > 10 µM and the Ki [14] was > 10 µM. The Ki [15] was 6.31 µM, the Ki [16] was > 10 µM and the Ki (D(1A) dopamine receptor) was > 10 µM. For the same compound, the Ki (Galanin peptides) was > 10 µM, the Ki [17] was > 10 µM and the Ki [18] was > 10 µM. For the same compound, the Ki (Histamine H1 receptor) was > 10 µM, the Ki (Hrh3 protein) was > 10 µM and the Ki [19] was > 10 µM. The Ki (Substance-K receptor) was > 10 µM, the Ki (Neuromedin-K receptor) was > 10 µM and the Ki (Pro-neuropeptide Y) was > 10 µM. For the same compound, the Ki (Somatostatin) was > 10 µM, the Ki [20] was > 10 µM and the Ki (VIP peptides) was > 10 µM.
